Assay results taken from PubChem BioAssay (NCI).
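A five-concentration, 48-hour dose response in 96-well plates underlies each endpoint, interpolated linearly between surrounding concentrations. GI50 = concentration required for 50% inhibition of growth. TGI: total growth inhibition.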

How the values were obtained:
Assay in all cases: NCI tumour cell line growth inhibition, 48 h
786-0 renal = system: 786-0 renal
A498 renal = system: A498 renal
A549 NSCLC = system: A549 NSCLC
ACHN renal = system: ACHN renal
BT-549 breast = system: BT-549 breast
CAKI-1 renal = system: CAKI-1 renal
CCRF-CEM leukemia = system: CCRF-CEM leukemia
COLO 205 colon = system: COLO 205 colon
DU-145 prostate = system: DU-145 prostate
EKVX NSCLC = system: EKVX NSCLC
HCC-2998 colon = system: HCC-2998 colon
HCT-116 colon = system: HCT-116 colon
HCT-15 colon = system: HCT-15 colon
HL-60(TB) leukemia = system: HL-60(TB) leukemia
HOP-62 NSCLC = system: HOP-62 NSCLC
HOP-92 NSCLC = system: HOP-92 NSCLC
HS 578T breast = system: HS 578T breast
HT29 colon = system: HT29 colon
IGROV1 ovarian = system: IGROV1 ovarian
K-562 leukemia = system: K-562 leukemia
KM12 colon = system: KM12 colon
LOX IMVI melanoma = system: LOX IMVI melanoma
M14 melanoma = system: M14 melanoma
MALME-3M melanoma = system: MALME-3M melanoma
MCF7 breast = system: MCF7 breast
MDA-MB-231 breast = system: MDA-MB-231 breast
MDA-MB-435 = system: MDA-MB-435
MOLT-4 leukemia = system: MOLT-4 leukemia
NCI-H226 lung = system: NCI-H226 lung
NCI-H23 lung = system: NCI-H23 lung
NCI-H460 lung = system: NCI-H460 lung
NCI-H522 lung = system: NCI-H522 lung
NCI/ADR-RES ovarian = system: NCI/ADR-RES ovarian
OVCAR-3 ovarian = system: OVCAR-3 ovarian
OVCAR-4 ovarian = system: OVCAR-4 ovarian
OVCAR-5 ovarian = system: OVCAR-5 ovarian
OVCAR-8 ovarian = system: OVCAR-8 ovarian
PC-3 prostate = system: PC-3 prostate
RPMI-8226 leukemia = system: RPMI-8226 leukemia
RXF 393 renal = system: RXF 393 renal
SF-268 CNS = system: SF-268 CNS
SF-295 CNS = system: SF-295 CNS
SK-MEL-2 melanoma = system: SK-MEL-2 melanoma
SK-MEL-28 melanoma = system: SK-MEL-28 melanoma
SK-MEL-5 melanoma = system: SK-MEL-5 melanoma
SK-OV-3 ovarian = system: SK-OV-3 ovarian
SN12C renal = system: SN12C renal
SNB-19 CNS = system: SNB-19 CNS
SNB-75 CNS = system: SNB-75 CNS
SR leukemia = system: SR leukemia
SW-620 colon = system: SW-620 colon
T-47D breast = system: T-47D breast
TK-10 renal = system: TK-10 renal
U251 CNS = system: U251 CNS
UACC-257 melanoma = system: UACC-257 melanoma
UACC-62 melanoma = system: UACC-62 melanoma
UO-31 renal = system: UO-31 renal
SF-539 CNS = system: SF-539 CNS

## Cc1ccc(/C=C2\COc3ccc(O)c(O)c3C2=O)cc1
786-0 renal
  GI50: 555 nM
  TGI: 2.49 µM
A498 renal
  GI50: 249 nM
  TGI: 1.95 µM
A549 NSCLC
  GI50: 2330 nM
  TGI: 11.5 µM
ACHN renal
  GI50: 639 nM
  TGI: 2 µM
BT-549 breast
  GI50: 585 nM
  TGI: 2.64 µM
CAKI-1 renal
  GI50: 765 nM
  TGI: 2.2 µM
CCRF-CEM leukemia
  GI50: 265 nM
  TGI: 1480 nM
COLO 205 colon
  GI50: 2000 nM
  TGI: 3.95 µM
DU-145 prostate
  GI50: 394 nM
  TGI: 1.71 µM
EKVX NSCLC
  GI50: 1280 nM
  TGI: 4.14 µM
HCC-2998 colon
  GI50: 1690 nM
  TGI: 3.28 µM
HCT-116 colon
  GI50: 1280 nM
  TGI: 2.93 µM
HCT-15 colon
  GI50: 352 nM
  TGI: 6.41 µM
HL-60(TB) leukemia
  GI50: 421 nM
  TGI: 2.14 µM
HOP-62 NSCLC
  GI50: 1440 nM
  TGI: 6.64 µM
HOP-92 NSCLC
  GI50: 887 nM
  TGI: 5.77 µM
HS 578T breast
  GI50: 362 nM
  TGI: > 26.4 µM
HT29 colon
  GI50: 2780 nM
  TGI: 9.05 µM
IGROV1 ovarian
  GI50: 559 nM
  TGI: 2.62 µM
K-562 leukemia
  GI50: 329 nM
  TGI: > 100 µM
KM12 colon
  GI50: 838 nM
  TGI: 3 µM
LOX IMVI melanoma
  GI50: 329 nM
  TGI: 1.34 µM
M14 melanoma
  GI50: 292 nM
  TGI: 1.06 µM
MALME-3M melanoma
  GI50: 909 nM
  TGI: 3.15 µM
MCF7 breast
  GI50: 375 nM
  TGI: 9.76 µM
MDA-MB-231 breast
  GI50: 340 nM
  TGI: 3.78 µM
MDA-MB-435
  GI50: 233 nM
  TGI: 0.764 µM
MOLT-4 leukemia
  GI50: 403 nM
  TGI: > 29.6 µM
NCI-H226 lung
  GI50: 2130 nM
  TGI: 6.24 µM
NCI-H23 lung
  GI50: 1450 nM
  TGI: 3.8 µM
NCI-H460 lung
  GI50: 1840 nM
  TGI: 5 µM
NCI-H522 lung
  GI50: 185 nM
  TGI: 0.461 µM
NCI/ADR-RES ovarian
  GI50: 343 nM
  TGI: > 100 µM
OVCAR-3 ovarian
  GI50: 386 nM
  TGI: 1.4 µM
OVCAR-4 ovarian
  GI50: 1470 nM
  TGI: 4.96 µM
OVCAR-5 ovarian
  GI50: 1750 nM
  TGI: 3.98 µM
OVCAR-8 ovarian
  GI50: 404 nM
  TGI: > 100 µM
PC-3 prostate
  GI50: 505 nM
  TGI: 3.74 µM
RPMI-8226 leukemia
  GI50: 252 nM
  TGI: 0.818 µM
RXF 393 renal
  GI50: 372 nM
  TGI: 1.16 µM
SF-268 CNS
  GI50: 1120 nM
  TGI: 3.35 µM
SF-295 CNS
  GI50: 2040 nM
  TGI: 9.64 µM
SK-MEL-2 melanoma
  GI50: 555 nM
  TGI: 3.65 µM
SK-MEL-28 melanoma
  GI50: 933 nM
  TGI: 2.83 µM
SK-MEL-5 melanoma
  GI50: 320 nM
  TGI: 1.26 µM
SK-OV-3 ovarian
  GI50: 395 nM
  TGI: 35.1 µM
SN12C renal
  GI50: 370 nM
  TGI: 2.33 µM
SNB-19 CNS
  GI50: 1320 nM
  TGI: 3.27 µM
SNB-75 CNS
  GI50: 322 nM
  TGI: 3.48 µM
SR leukemia
  GI50: 358 nM
  TGI: > 100 µM
SW-620 colon
  GI50: 854 nM
  TGI: 3.11 µM
T-47D breast
  GI50: 951 nM
  TGI: 6.94 µM
TK-10 renal
  GI50: 1470 nM
  TGI: 3.44 µM
U251 CNS
  GI50: 922 nM
  TGI: 2.29 µM
UACC-257 melanoma
  GI50: 1550 nM
  TGI: 5.38 µM
UACC-62 melanoma
  GI50: 407 nM
  TGI: 1.65 µM
UO-31 renal
  GI50: 465 nM
  TGI: 1.8 µM

## C=C1C(=O)OC2C1C(=O)C/C(C)=C/CCC1(C)OC21 (stereo unspecified)
786-0 renal
  TGI: 31.8 µM
A498 renal
  TGI: 49.6 µM
A549 NSCLC
  TGI: 37.8 µM
ACHN renal
  TGI: 22.2 µM
BT-549 breast
  TGI: 54.6 µM
CAKI-1 renal
  TGI: 28.6 µM
CCRF-CEM leukemia
  TGI: > 100000 nM
COLO 205 colon
  TGI: 18 µM
DU-145 prostate
  TGI: 32.1 µM
EKVX NSCLC
  TGI: 61.2 µM
HCC-2998 colon
  TGI: 35.3 µM
HCT-116 colon
  TGI: 33.5 µM
HCT-15 colon
  TGI: 28.6 µM
HL-60(TB) leukemia
  TGI: 7.23 µM
HOP-62 NSCLC
  TGI: 28 µM
HOP-92 NSCLC
  TGI: 41.7 µM
HS 578T breast
  TGI: > 100 µM
HT29 colon
  TGI: 43.2 µM
IGROV1 ovarian
  TGI: 44.9 µM
K-562 leukemia
  TGI: 74 µM
KM12 colon
  TGI: 53.3 µM
LOX IMVI melanoma
  TGI: 36.7 µM
M14 melanoma
  TGI: 31.7 µM
MCF7 breast
  TGI: 29.2 µM
MDA-MB-231 breast
  TGI: 38.3 µM
MDA-MB-435
  TGI: 31.1 µM
MOLT-4 leukemia
  TGI: 47 µM
NCI-H226 lung
  TGI: 39.2 µM
NCI-H23 lung
  TGI: 38.8 µM
NCI-H460 lung
  TGI: 39.7 µM
NCI-H522 lung
  TGI: 12 µM
NCI/ADR-RES ovarian
  TGI: 99.4 µM
OVCAR-3 ovarian
  TGI: 31.8 µM
OVCAR-4 ovarian
  TGI: 46 µM
OVCAR-5 ovarian
  TGI: 33 µM
OVCAR-8 ovarian
  TGI: 56.2 µM
PC-3 prostate
  TGI: 33.3 µM
RPMI-8226 leukemia
  TGI: 31.7 µM
RXF 393 renal
  TGI: 31.9 µM
SF-268 CNS
  TGI: 50.8 µM
SF-295 CNS
  TGI: > 100 µM
SF-539 CNS
  TGI: 29.3 µM
SK-MEL-2 melanoma
  TGI: 35.8 µM
SK-MEL-28 melanoma
  TGI: 31.6 µM
SK-MEL-5 melanoma
  TGI: 34.5 µM
SK-OV-3 ovarian
  TGI: > 100 µM
SN12C renal
  TGI: 42.6 µM
SNB-19 CNS
  TGI: > 100 µM
SNB-75 CNS
  TGI: 46.7 µM
SR leukemia
  TGI: > 100 µM
SW-620 colon
  TGI: 40.8 µM
T-47D breast
  TGI: 32.2 µM
TK-10 renal
  TGI: 30.8 µM
U251 CNS
  TGI: 37.7 µM
UACC-257 melanoma
  TGI: 41.3 µM
UACC-62 melanoma
  TGI: 66.8 µM
UO-31 renal
  TGI: 28.4 µM
